Experiments:
Experiment in all cases: KINOMEscan kinase binding assay
[1] = biological target: T1, 384 kinases from the human genome (Homo sapiens, UniProt O00238); conditions: kinase BMPR1B (Entrez BMPR1B)
T1 construct: purchased Eurofin/DiscoverX
Summary of the method: (§1)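 A panel of 384 human kinases was profiled by KINOMEscan binding in the presence of 10 µM compound. Kinase–ligand binding was given as percent of DMSO control, averaged from duplicates in a single run, with an S(10) selectivity score.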

[2] = biological target: T2, 384 kinases from the human genome (Homo sapiens, UniProt O43293); conditions: kinase DAPK3 (Entrez DAPK3)
T2 construct: purchased Eurofin/DiscoverX
T2 sequence (O43293 whole entry): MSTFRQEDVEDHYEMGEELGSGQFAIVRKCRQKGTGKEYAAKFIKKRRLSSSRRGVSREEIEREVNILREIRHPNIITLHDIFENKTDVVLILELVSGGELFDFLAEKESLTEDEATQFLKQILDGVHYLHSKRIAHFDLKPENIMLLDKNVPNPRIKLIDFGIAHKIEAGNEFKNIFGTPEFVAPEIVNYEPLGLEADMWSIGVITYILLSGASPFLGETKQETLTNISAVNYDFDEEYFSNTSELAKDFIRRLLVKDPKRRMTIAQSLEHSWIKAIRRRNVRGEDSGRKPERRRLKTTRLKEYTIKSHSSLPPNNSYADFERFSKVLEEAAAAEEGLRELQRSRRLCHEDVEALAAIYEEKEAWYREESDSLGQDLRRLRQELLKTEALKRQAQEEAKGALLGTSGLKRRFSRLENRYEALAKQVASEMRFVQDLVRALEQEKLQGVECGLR
Summary of the method: as §1

[3] = biological target: T3, 384 kinases from the human genome (Homo sapiens, UniProt O43318); conditions: kinase TAK1 (Entrez MAP3K7)
T3 construct: purchased Eurofin/DiscoverX
Summary of the method: as §1

[4] = biological target: T4, 384 kinases from the human genome (Homo sapiens, UniProt O76039); conditions: kinase CDKL5 (Entrez CDKL5)
T4 construct: purchased Eurofin/DiscoverX
Summary of the method: as §1

[5] = biological target: T5, 384 kinases from the human genome (Homo sapiens, UniProt O94804); conditions: kinase LOK (Entrez STK10)
T5 construct: purchased Eurofin/DiscoverX
T5 sequence (O94804 whole entry): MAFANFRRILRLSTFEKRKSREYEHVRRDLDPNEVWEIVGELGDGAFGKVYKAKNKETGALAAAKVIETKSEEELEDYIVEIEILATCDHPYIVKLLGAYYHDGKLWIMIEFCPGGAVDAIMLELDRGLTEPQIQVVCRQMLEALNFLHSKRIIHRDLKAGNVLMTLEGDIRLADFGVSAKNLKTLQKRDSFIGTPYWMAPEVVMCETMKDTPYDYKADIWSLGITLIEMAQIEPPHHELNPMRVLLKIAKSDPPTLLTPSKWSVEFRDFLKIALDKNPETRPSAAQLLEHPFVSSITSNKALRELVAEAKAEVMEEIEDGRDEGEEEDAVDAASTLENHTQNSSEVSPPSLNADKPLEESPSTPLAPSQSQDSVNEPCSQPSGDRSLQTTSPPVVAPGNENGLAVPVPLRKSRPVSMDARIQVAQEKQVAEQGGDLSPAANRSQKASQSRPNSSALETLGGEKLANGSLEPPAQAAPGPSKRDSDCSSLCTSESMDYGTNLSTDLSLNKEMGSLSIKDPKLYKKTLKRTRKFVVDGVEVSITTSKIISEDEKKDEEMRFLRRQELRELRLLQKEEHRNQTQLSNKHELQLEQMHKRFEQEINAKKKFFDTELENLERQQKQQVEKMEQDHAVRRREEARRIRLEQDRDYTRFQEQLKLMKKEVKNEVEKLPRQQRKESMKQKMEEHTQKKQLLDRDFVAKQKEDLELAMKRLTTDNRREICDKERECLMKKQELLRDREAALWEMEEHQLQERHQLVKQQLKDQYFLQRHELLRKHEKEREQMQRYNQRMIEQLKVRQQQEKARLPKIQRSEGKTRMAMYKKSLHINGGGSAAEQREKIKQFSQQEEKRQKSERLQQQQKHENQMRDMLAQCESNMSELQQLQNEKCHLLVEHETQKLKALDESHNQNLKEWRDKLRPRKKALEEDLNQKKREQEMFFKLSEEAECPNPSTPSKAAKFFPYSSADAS
Summary of the method: as §1

[6] = biological target: T6, 384 kinases from the human genome (Homo sapiens, UniProt P07948); conditions: kinase LYN (Entrez LYN)
T6 construct: purchased Eurofin/DiscoverX
T6 sequence (P07948 whole entry): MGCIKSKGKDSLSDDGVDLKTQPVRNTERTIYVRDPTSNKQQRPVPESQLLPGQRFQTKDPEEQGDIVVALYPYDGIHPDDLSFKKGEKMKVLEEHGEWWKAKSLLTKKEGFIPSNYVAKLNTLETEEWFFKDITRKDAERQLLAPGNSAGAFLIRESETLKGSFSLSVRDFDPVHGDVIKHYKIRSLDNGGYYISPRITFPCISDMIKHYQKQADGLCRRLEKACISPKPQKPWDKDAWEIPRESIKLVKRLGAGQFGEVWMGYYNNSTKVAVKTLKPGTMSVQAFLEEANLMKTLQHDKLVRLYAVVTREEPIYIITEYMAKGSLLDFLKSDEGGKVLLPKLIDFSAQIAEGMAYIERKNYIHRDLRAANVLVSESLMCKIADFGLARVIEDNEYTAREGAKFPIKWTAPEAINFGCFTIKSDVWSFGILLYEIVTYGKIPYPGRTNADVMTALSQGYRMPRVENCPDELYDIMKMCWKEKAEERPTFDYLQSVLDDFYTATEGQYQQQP
Summary of the method: as §1

[7] = biological target: T7, 384 kinases from the human genome (Homo sapiens, UniProt P0C1S8); conditions: kinase WEE2 (Entrez WEE2)
T7 construct: purchased Eurofin/DiscoverX
Summary of the method: as §1

[8] = biological target: T8, 384 kinases from the human genome (Homo sapiens, UniProt P35968); conditions: kinase VEGFR2 (Entrez KDR)
T8 construct: purchased Eurofin/DiscoverX
Summary of the method: as §1

[9] = biological target: T9, 384 kinases from the human genome (Homo sapiens, UniProt P41743); conditions: kinase PRKCI (Entrez PRKCI)
T9 construct: purchased Eurofin/DiscoverX
Summary of the method: as §1

[10] = biological target: T10, 384 kinases from the human genome (Homo sapiens, UniProt P48730); conditions: kinase CSNK1D (Entrez CSNK1D)
T10 construct: purchased Eurofin/DiscoverX
T10 sequence (P48730 whole entry): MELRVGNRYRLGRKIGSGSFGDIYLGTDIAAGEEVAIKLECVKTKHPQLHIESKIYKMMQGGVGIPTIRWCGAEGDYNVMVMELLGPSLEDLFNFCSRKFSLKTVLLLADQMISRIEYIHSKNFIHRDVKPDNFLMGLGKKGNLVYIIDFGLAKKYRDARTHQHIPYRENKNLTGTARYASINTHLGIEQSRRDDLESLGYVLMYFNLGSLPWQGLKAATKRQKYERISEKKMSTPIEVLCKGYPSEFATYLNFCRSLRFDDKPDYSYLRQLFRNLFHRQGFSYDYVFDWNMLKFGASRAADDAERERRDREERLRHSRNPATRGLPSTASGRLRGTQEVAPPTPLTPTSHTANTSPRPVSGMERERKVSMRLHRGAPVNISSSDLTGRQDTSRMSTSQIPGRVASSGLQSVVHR
Summary of the method: as §1

[11] = biological target: T11, 384 kinases from the human genome (Homo sapiens, UniProt P49137); conditions: kinase MAPKAPK2 (Entrez MAPKAPK2)
T11 construct: purchased Eurofin/DiscoverX
Summary of the method: as §1

[12] = biological target: T12, 384 kinases from the human genome (Homo sapiens, UniProt P49841); conditions: kinase GSK3B (Entrez GSK3B)
T12 construct: purchased Eurofin/DiscoverX
Summary of the method: as §1

[13] = biological target: T13, 384 kinases from the human genome (Homo sapiens, UniProt P51451); conditions: kinase BLK (Entrez BLK)
T13 construct: purchased Eurofin/DiscoverX
T13 sequence (P51451 whole entry): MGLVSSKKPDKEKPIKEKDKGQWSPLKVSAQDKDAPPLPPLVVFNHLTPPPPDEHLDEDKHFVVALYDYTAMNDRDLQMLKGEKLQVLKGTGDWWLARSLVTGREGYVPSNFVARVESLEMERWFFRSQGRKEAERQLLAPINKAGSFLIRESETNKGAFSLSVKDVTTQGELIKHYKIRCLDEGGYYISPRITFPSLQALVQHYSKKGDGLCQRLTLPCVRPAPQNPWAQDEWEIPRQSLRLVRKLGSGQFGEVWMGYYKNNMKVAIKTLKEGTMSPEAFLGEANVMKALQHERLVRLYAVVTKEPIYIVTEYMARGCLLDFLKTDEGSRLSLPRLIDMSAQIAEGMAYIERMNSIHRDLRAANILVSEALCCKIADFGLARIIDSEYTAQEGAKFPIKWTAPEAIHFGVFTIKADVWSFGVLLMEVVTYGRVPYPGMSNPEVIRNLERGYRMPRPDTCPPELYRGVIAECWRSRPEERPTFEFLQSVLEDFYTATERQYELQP
Summary of the method: as §1

[14] = biological target: T14, 384 kinases from the human genome (Homo sapiens, UniProt Q13464); conditions: kinase ROCK1 (Entrez ROCK1)
T14 construct: purchased Eurofin/DiscoverX
Summary of the method: as §1

[15] = biological target: T15, 384 kinases from the human genome (Homo sapiens, UniProt Q13882); conditions: kinase BRK (Entrez PTK6)
T15 construct: purchased Eurofin/DiscoverX
Summary of the method: as §1

[16] = biological target: T16, 384 kinases from the human genome (Homo sapiens, UniProt Q6ZWH5); conditions: kinase NEK10 (Entrez NEK10)
T16 construct: purchased Eurofin/DiscoverX
Summary of the method: as §1

[17] = biological target: T17, 384 kinases from the human genome (Homo sapiens, UniProt Q8IYT8); conditions: kinase ULK2 (Entrez ULK2)
T17 construct: purchased Eurofin/DiscoverX
Summary of the method: as §1

[18] = biological target: T18, 384 kinases from the human genome (Homo sapiens, UniProt Q8N5S9); conditions: kinase CAMKK1 (Entrez CAMKK1)
T18 construct: purchased Eurofin/DiscoverX
Summary of the method: as §1

[19] = biological target: T19, 384 kinases from the human genome (Homo sapiens, UniProt Q8TD08); conditions: kinase ERK8 (Entrez MAPK15)
T19 construct: purchased Eurofin/DiscoverX
Summary of the method: as §1

[20] = biological target: T20, 384 kinases from the human genome (Homo sapiens, UniProt Q8TF76); conditions: kinase HASPIN (Entrez GSG2)
T20 construct: purchased Eurofin/DiscoverX
T20 sequence (Q8TF76 whole entry): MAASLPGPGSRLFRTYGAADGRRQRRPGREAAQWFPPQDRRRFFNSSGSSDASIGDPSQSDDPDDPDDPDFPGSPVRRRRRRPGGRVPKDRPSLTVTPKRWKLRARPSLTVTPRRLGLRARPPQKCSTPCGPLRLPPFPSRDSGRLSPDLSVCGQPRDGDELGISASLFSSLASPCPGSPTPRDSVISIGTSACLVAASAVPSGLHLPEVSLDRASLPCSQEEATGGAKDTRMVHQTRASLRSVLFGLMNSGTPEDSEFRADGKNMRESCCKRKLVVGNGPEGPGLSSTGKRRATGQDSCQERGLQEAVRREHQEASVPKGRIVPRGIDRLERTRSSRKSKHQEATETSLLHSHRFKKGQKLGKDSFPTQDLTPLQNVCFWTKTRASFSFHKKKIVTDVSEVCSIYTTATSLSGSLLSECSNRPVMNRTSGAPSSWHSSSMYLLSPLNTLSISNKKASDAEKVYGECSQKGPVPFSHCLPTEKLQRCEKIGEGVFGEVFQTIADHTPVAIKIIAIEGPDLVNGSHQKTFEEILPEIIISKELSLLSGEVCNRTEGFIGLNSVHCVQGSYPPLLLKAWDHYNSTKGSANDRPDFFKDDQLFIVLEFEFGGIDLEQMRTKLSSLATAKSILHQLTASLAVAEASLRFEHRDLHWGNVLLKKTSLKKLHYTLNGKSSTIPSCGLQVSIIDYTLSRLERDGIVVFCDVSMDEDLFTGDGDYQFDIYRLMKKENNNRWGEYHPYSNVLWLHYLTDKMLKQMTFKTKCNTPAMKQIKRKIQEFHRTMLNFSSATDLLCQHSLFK
Summary of the method: as §1

[21] = biological target: T21, 384 kinases from the human genome (Homo sapiens, UniProt Q96PN8); conditions: kinase TSSK3 (Entrez TSSK3)
T21 construct: purchased Eurofin/DiscoverX
T21 sequence (Q96PN8 whole entry): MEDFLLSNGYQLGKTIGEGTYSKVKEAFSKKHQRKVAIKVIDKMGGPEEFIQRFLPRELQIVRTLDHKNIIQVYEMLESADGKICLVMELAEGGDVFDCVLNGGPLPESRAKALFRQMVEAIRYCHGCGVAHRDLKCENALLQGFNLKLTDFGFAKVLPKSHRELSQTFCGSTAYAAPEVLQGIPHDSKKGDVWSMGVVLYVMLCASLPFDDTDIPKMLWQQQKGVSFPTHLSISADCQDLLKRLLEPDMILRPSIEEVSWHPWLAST
Summary of the method: as §1

[22] = biological target: T22, 384 kinases from the human genome (Homo sapiens, UniProt Q99640); conditions: kinase PKMYT1 (Entrez PKMYT1)
T22 construct: purchased Eurofin/DiscoverX
Summary of the method: as §1

[23] = biological target: T23, 384 kinases from the human genome (Homo sapiens, UniProt Q9H1R3); conditions: kinase MYLK2 (Entrez MYLK2)
T23 construct: purchased Eurofin/DiscoverX
T23 sequence (Q9H1R3 whole entry): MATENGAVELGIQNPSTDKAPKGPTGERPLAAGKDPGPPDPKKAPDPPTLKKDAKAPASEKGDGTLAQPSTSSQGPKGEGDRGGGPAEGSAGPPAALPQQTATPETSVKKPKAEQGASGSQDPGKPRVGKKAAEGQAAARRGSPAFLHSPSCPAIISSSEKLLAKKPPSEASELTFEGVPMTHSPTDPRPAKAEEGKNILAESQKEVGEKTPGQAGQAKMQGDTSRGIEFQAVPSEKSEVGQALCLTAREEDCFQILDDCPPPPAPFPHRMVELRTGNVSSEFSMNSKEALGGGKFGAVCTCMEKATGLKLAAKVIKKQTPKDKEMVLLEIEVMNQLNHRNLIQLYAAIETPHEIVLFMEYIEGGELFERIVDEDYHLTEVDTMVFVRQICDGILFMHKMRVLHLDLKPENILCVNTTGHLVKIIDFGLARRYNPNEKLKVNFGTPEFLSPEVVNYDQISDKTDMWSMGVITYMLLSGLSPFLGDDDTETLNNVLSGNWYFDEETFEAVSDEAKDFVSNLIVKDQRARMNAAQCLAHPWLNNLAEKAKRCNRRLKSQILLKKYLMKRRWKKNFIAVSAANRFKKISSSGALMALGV
Summary of the method: as §1

[24] = biological target: T24, 384 kinases from the human genome (Homo sapiens, UniProt Q9H2K8); conditions: kinase TAOK3 (Entrez TAOK3)
T24 construct: purchased Eurofin/DiscoverX
Summary of the method: as §1

[25] = biological target: T25, 384 kinases from the human genome (Homo sapiens, UniProt Q9P286); conditions: kinase PAK7 (Entrez PAK7)
T25 construct: purchased Eurofin/DiscoverX
Summary of the method: as §1

[26] = biological target: T26, 384 kinases from the human genome (Homo sapiens, UniProt Q9Y2H1); conditions: kinase NDR2 (Entrez STK38L)
T26 construct: purchased Eurofin/DiscoverX
T26 sequence (Q9Y2H1 whole entry): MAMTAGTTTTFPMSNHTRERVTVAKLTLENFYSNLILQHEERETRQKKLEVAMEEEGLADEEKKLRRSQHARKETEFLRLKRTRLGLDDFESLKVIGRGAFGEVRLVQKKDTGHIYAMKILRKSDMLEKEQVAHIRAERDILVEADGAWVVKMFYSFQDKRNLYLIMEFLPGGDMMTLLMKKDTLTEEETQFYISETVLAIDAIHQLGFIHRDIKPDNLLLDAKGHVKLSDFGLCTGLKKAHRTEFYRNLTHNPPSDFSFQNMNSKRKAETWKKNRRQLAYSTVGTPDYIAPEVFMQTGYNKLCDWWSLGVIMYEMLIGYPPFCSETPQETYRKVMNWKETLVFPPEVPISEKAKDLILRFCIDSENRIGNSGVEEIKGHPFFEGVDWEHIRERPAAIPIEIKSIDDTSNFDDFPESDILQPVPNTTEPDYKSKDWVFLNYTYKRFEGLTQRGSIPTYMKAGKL
Summary of the method: as §1

CC(C)C(=O)N1CCN(c2ccc(NC(=O)c3cc4ccccc4o3)cc2Cl)CC1 [Compound 21]
Percent Control [1]: 82%
Percent Control [2]: 100%
Percent Control [3]: 83%
Percent Control [4]: 89%
Percent Control [5]: 100%
Percent Control [6]: 100%
Percent Control [7]: 100%
Percent Control [8]: 93%
Percent Control [9]: 100%
Percent Control [10]: 86%
Percent Control [11]: 100%
Percent Control [12]: 99%
Percent Control [13]: 78%
Percent Control [14]: 88%
Percent Control [15]: 88%
Percent Control [16]: 95%
Percent Control [17]: 95%
Percent Control [18]: 100%
Percent Control [19]: 100%
Percent Control [20]: 98%
Percent Control [21]: 100%
Percent Control [22]: 83%
Percent Control [23]: 80%
Percent Control [24]: 100%
Percent Control [25]: 85%
Percent Control [26]: 77%
